Results: patent publication US9199948B2, “1,3-benzoxazol-2(3H)-ones and their use as medicaments and cosmetics” (DR. AUGUST WOLFF GMBH & CO. KG ARZNEIMITTEL, priority 2012, dated 2015)

System: Arachidonoylethanolamide Transport (AEAT) in U937 cells
Experiment: Cellular uptake of [3H]-AEA (inhibition of arachidonoylethanolamide transport, AEAT)
Type: cell-based
Details: Homo sapiens, U-937, 100 nM AEA, 15 min pre-incubation, 15 min uptake at 37° C.
Method: C. Cellular Uptake of [^3H]-AEA
Human lymphoma U937 cells were grown in RPMI 1640 medium (Invitrogen, Basel, Switzerland) supplemented with 10% fetal bovine serum, […] fungizone (amphotericin B), 100 units/ml penicillin, 100 µg/ml streptomycin, and 2 mM L-glutamine (all from Invitrogen) and selected for the cellular AEA uptake assay. 2.5×10^6 cells were collected and suspended in 250 μl of RPMI 1640 medium (Invitrogen, Basel, Switzerland) at 37° C. using glass silanized vials. Cells were pre-incubated 15 min at 37° C. in presence of test compounds in a concentration range of 10^−11−10^−5 M or in presence of the same amount (5 μl) of vehicle control (DMSO). Then a mixture of 0.5 nM [^3H]-AEA (60 Ci/mmol) (American Radiolabeled Chemicals, Inc., San Louis, Mo., US) and 99.5 nM of nonradioactive AEA (Tocris Cookson Ltd., Bristol, UK) resulting in a final concentration of 100 nM AEA was added and samples were incubated at 37° C. for another 15 minutes. […] Radioactivity was measured using a Perkin Elmer 1450 Microbeta TRILUX liquid scintillation counter. Results were expressed as % of AEA uptake versus cells treated with solvent and the EC50 and IC50 values were calculated from the sigmoidal curves, which were generated using the GraphPad Prism 5.0 (GraphPad Software, San Diego, Calif., US).

Row | EC50 | SMILES
1 | 112 nM | Cn1c(=O)oc2ccc(NC(=O)/C=C/C=C/CCc3ccccc3)cc21 [Example 10]
2 | 146 nM | CCCCCCC/C=C/C=C/CNC(=O)c1ccc2oc(=O)[nH]c2c1 [Example 4]
